Measurements as given in patent US9028842B2, “Compositions and methods for treatment, research and therapeutic applications for malaria” (priority 2007, dated 2015).
Where no end group is shown, it is not given here.

Columns and labels:
[1] = test system: P. falciparum infected erythrocytes expressing PfHRPII-GFP; experiment: Endocytic lipid import with the lipid marker FM4-64; format: cell-based, Plasmodium falciparum; details: 5 μM PPMP, short-term (30 min)
Method: FM4-64 (N-(3-triethylammoniumpropyl)-4-(6-(4-(diethylamino)phenyl)hexatrienyl)pyridinium dibromide) is a fluorescent lipid marker that has been used to study endocytosis in eukaryotic cells^18. To visualize active uptake of FM4-64 from the erythrocyte plasma membrane during intraerythrocytic growth, trophozoite stage parasites expressing either PfHRPII-GFP or PFD0495c-GFP were incubated in the absence or presence of 5 μM dl-threo-PPMP for 30 min at 37° C. Infected erythrocytes were washed three times in PBS then stained with 16 μM FM4-64 for 30 min at 37° C. Nuclei were stained with 10 μg/mL Hoechst 33342, and cells were washed with PBS three times. Cells were imaged live with DeltaVision Deconvolution microscopy^10.

[2] = test system: P. falciparum 3D7 and PFD0495c-GFP clones; details: after 36 h of treatment, previous studies; cited from earlier work
[3] = test system: P. falciparum ring stage parasites; experiment: Quantitative RT-PCR of PFD0495c transcript after PPMP treatment; format: cell-based, Plasmodium falciparum; details: 5 μM PPMP, 12 and 24 hr of treatment
Method: Quantitative PCR was used to confirm the array results. Parasites were synchronized by successive rounds of percoll and sorbitol. Ring stage parasites were treated with either 5 μM dl-threo-PPMP or vehicle (ethanol=0.01%) for 3, 6, 12, and 24 h. RNA was isolated using Trizol (Invitrogen) and treated with DNAse (Promega) according the manufacturer's recommendations. Integrity of the RNA was confirmed with the 2100 Bioanalyzer (Agilent). First strand cDNA synthesis was initiated by priming 5 ug RNA with 40 ug/mL oligo(dT)12-18 at 65° C. for 5 min then incubating reaction with 0.5 mM dNTPs and 200 U SuperScript reverse transcriptase (Invitrogen) for 60 min at 42° C. The reaction was inactivated by heating to 70° C. for 15 min. […]
Amplification of P. falciparum 18S ribosomal RNA (GI 160642), an endogenous control, was done in parallel (forward 5′-ACAATTGGAGGGCAAGT-′3 (SEQ ID NO:39), reverse 5′-TTGGAGCTGGAATTACC-3′ (SEQ ID NO:40)) to standardize the amount of sample in each well. […] Relative quantification was performed using the comparative method, whereby the amount of PFD0495c was normalized to the endogenous control 18S rRNA. […]

[4] = test system: P. falciparum 3D7 and PFD0495c-GFP clones; experiment: Reversibility of treatment with PPMP after 24 hr; format: cell-based, Plasmodium falciparum
Method: Synchronized ring stage parasites at 5-10% pst were incubated with 5 uM PPMP for 24 hr (day 1). Infected erythrocytes were washed with RPMI 1640 three times to remove PPMP then put back into culture. Blood smears were made at days 0, 1, 2, and 3 and stained with Giemsa. Parasites were fed fresh media every 24 hr. Rings, trophozoites and schizonts were enumerated by a counter who was blinded to sample identity. Both PFD0495c-GFP clones responded to PPMP in the same manner as 3D7. […] When PPMP was washed out, all parasites continued the cell cycle and at day 2 matured to schizonts, which formed new rings by day 3.

[5] = test system: P. falciparum 3D7 ring stage parasites; experiment: Transcriptional response to PPMP treatment by microarrays; format: cell-based, Plasmodium falciparum; details: 5 μM dl-threo-PPMP, 24 hr, relative to control trophozoites
Method: Ring stage parasites were treated with either 5 μM dl-threo-PPMP or vehicle ([ethanol]f=0.01%) for 24 hr and were harvested for RNA isolation. Untreated ring stage parasites were also harvested. The experimental design served to compare PPMP— to either mock-treated or ring stage transcripts. RNA was isolated according to Invitrogen (Carlsbad, Calif.) protocols using Trizol. First strand cDNA synthesis and hybridizations were performed according to previous protocols^24. Microarray slides were scanned using GenePix 4000B Scanner and analyzed with GenePix Pro 4.1. The statistical program R with the add-in package SMA (http://www. followed by stat.berkeley.edu/%7Eterry/zarray/Software/smacode.html) was used to normalize data^25,26. Only high quality features and those with signal two standard deviations above background were analyzed, leaving 4580 elements from a total of 8088 oligos. Features with a log odds ratio above zero were considered.

[6] = test system: TVN of P. falciparum infected ghosts; experiment: Visualization of tubovesicular network by BODIPY-Texas Red C5 ceramide staining; format: cell-based, Plasmodium falciparum; details: 10 μM in erythrocyte cytoplasm
Method: To visualize TVN membranes, erythrocytes or ghosts infected with indicated P. falciparum strain were washed free of serum and stained with 2.5 μM BODIPY-Texas Red C5 ceramide (N-((4-(4,4-difluoro-5-(2-thienyl)-4-bora-3a,4a-diaza-s-indacene-3-yl)phenoxy)acetyl)sphingosine, Invitrogen) for 15 min at 37° C. Nuclei were stained with 10 μg/mL Hoechst 33342. The cells were washed in RPMI 1640 three times and viewed live by DeltaVision Deconvolution microscopy as described^9.

[7] = test system: P. falciparum 3D7 infected ghosts; experiment: Indirect immunofluorescence assay of parasite protein export in infected ghosts; format: cell-based, Plasmodium falciparum; details: 10 μM in erythrocyte cytoplasm
Method: Indirect immunofluorescence assay was conducted as described^27. Ghosts that were infected with 3D7 were probed with antibodies to HRPII (Santa Cruz) and MSP1 (MR4) and appropriate secondary antibodies conjugated to FITC or rhodamine. Nuclei were stained with 10 μg/mL Hoechst 33342. Images were captured using DeltaVision Deconvolution microscopy as described^10.

[8] = test system: P. falciparum; experiment: GST-fusions loaded into resealed erythrocyte ghosts, then infection by Plasmodium falciparum; format: cell-based
Text: Erythrocytes were loaded with GST cargo and resealed according to previous protocols^15. Schizonts were percoll-purified to >95% purity and mixed with loaded ghosts at 2% parasitemia. Numbers of rings, trophozoites and schizonts were enumerated by a counter who was blinded to sample identity. Parasite morphology was monitored for any differences. Images of blood smears were taken by light microscopy with a Zeiss Axioskop upright microscope and Nuance spectral camera/un-mixing system (Cambridge Research and Instrumentation).

[9] = 50 μM in resealed erythrocyte ghosts

CCCCCCCCCCCCCCCC(=O)N[C@H](CN1CCOCC1)[C@H](O)c1ccccc1 (racemic) [PPMP, dl-threo-1-phenyl-2-palmitoyl-3-morpholino-1-propanol]
internalization of FM4-64 via TVN tubules [1]: blocked | concentrations inhibiting 50% and 90% parasite growth [2]: low micromolar | PFD0495c transcript level compared to vehicle control [3]: significantly up-regulated | reversibility of effects on parasite growth upon washing out drug ([4]; 5 μM PPMP 24 h, parent line and transgenic clones): completely reversible | parasite stage after 24 incubation ([4]; 5 uM PPMP, 3D7 and both PFD0495c-GFP clones): remained at the trophozoite stage | PFC0435w transcriptional change (down regulated) [5]: ~4 fold | PFD0495c transcriptional change (upregulated) [5]: ~3 fold

GST-PFD0495cCterm: recombinant form of the C-terminal region of PFD0495c (amino acids 795 to 833) fused to glutathione S-transferase (DLDIDDTLKFQHDQEFLNYFKRYQDFNNQLFDSFRSDDR; also: fused to glutathione S-transferase)
effect on tubular-TVN development [6]: disrupted | effect on parasite protein export [7]: no deleterious effect | effect on invasion (measured as ring formation) [8, 9]: no significant effect | effect on trophozoite growth [8, 9]: inhibitory | parasitemia on Day 3 ([8]; ghosts loaded with 10 μM): 6-7%
